Data on one compound can be found in patent publication EP4643858A1, “METHODS AND PHARMACEUTICAL COMPOSITION FOR THE TREATMENT OF UTERINE DISEASE” (Institut National de la Santé et de la Recherche Médicale, priority 2024, dated 2025).

In series [1] the test system is P-AKTSer473. Put plainly: Patient tissues (healthy endometrium, adenomyosis or endometriosis lesions) treated in vitro, Western blot of P-AKT. The class given is cell-based, human. The note with it: healthy endometrium and lesions of adenomyosis or endometriosis from patients, exposed in vitro during 24 hours to different doses; Western blot P-AKTSer473 (Figure 3B). The protocol:
(§1) Tissues were crushed and then lysed in RIPA lysis buffer supplemented with phosphatase and protease inhibitors. Protein concentrations were determined through the bicinchoninic acid method (Pierce). Protein extracts were analyzed by Western blot where the transfer membrane was incubated with a primary antibody followed by the appropriate peroxidase-conjugated secondary antibody (dilution 1:10,000). Chemiluminescence were acquired using a Chemidoc MP and bands were quantitated with the Image Lab Software (Bio-Rad Laboratories).
as §1, with “Tissues collected from patients (endometrium, adenomyosis, endometriosis and myoma). Tissues were cultivated in media and treated during 24 hours with either DMSO, alpelisib or ST420 (Compound having formula I and/or its derivatives). Then, they” for “Tissues”, “and” for “and then”
PIK3CA pharmacological inhibitors are developed for oncology and other medical situations. […]
A general note: Immunoblotting shows a protein as a band on a membrane.

Series [2] deals with P-AKTSer473. Put plainly: Patient myometrium and myoma samples treated in vitro, Western blot of P-AKT. The class given is cell-based, human. Conditions: myometrium and myoma samples from patients treated in vitro 24 hours at different doses; Western blot P-AKTSer473 (Figure 4). The protocol:
as §1
as §1, with “Tissues collected from patients (endometrium, adenomyosis, endometriosis and myoma). Tissues were cultivated in media and treated during 24 hours with either DMSO, alpelisib or ST420 (Compound having formula I and/or its derivatives). Then, they” for “Tissues”, “and” for “and then”, “Laboratories). […]” for “Laboratories).”

For series [3] the following is noted: patients treated with alpelisib; cited from earlier work.

Structures are written as SMILES.

In the case of `Cc1nc(NC(=O)N2CCC[C@H]2C(N)=O)sc1-c1ccnc(C(C)(C)C(F)(F)F)c1` [alpelisib], in the series with P-AKTSer473 [1], the “phosphorylation of AKT” value is on record as “able to shut down the phosphorylation of AKT”. In the series on P-AKTSer473 [2], the “inhibition of the PIK3CA pathway in myoma” value was “able to inhibit the pathway in myoma”. Also, in series [3], the “insulin resistance which can lead to diabetes, share of patients” value is listed as “about 30%”.
